Measurements from patent US6235780A, “ω-cycloalkyl-prostaglandin E1 derivatives” (Ono Pharmaceutical Co., Ltd., priority 1998, dated 2001).

What was measured:
[1] = biological target: T1, mouse EP1 (Mus musculus, UniProt P35375); test: Binding assay using expression cell of prostanoids receptor subtype: 3H-PGE2 binding inhibition, EP1; conditions: 2.5 nM 3H-PGE2, CHO cell membrane fraction, pH 6.0, room temperature, 1 hour; read-out: Dissociation Constant Ki, EP1
T1 construct: expressed in transfected cells; host or cells: CHO cells
T1 sequence (P35375 1-405): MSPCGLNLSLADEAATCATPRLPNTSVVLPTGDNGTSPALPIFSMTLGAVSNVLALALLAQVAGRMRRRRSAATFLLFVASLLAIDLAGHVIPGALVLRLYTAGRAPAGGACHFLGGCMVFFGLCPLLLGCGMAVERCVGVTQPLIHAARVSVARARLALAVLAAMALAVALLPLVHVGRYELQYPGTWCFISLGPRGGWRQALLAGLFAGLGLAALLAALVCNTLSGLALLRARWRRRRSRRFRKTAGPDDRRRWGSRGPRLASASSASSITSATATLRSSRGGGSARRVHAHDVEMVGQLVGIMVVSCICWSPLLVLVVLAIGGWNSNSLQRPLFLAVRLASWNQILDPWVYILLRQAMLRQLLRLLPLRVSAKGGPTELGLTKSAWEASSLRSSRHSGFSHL
Procedure: (§1) (i) Binding assay using expression cell of prostanoids receptor subtype
(§2) The preparation of membrane fraction was carried out according to the method of Sugimoto et al. [J. Biol. Chem., 267, 6463-6466 (1992)], using expression CHO cell of the prostanoids receptor subtype (mouse EP1, EP2, EP3α, EP4).
(§3) The standard assay mixture containing membrane fraction (0.5 mg/ml), and ^3 H-PGE2 in a final volume of 200 μl was incubated at room temperature for 1 hour. The reaction was terminated by addition of 3 ml of ice-cooled buffer. The mixture was filtered through a GF/B glass filter under reduced pressure. The radioactivity associated with the filter was measured by liquid scintillation counter.
(§4) Kd and Bmax values were determined from Scatchard plots [Ann. N.Y. Acad. Sci., 51, 660 (1949)]. Non-specific binding was calculated as the binding in the presence of an excess (10 μM) of unlabeled PGE2. In the measurement of ^3 H-PGE2 binding inhibitory activity, 2.5 nM of ^3 H-PGE2 and various concentrations of the compounds of the present invention were added. The following buffer was used in all reactions.
(§5) Buffer; 10 mM potassium phosphate (pH 6.0), 1 mM EDTA, 10 mM MgCl2, 0.1 M NaCl.
(§6) The dissociation constant Ki (μM) of each compound was calculated by the following equation.

[2] = biological target: T2, mouse EP2 (Mus musculus, UniProt Q62053); test: Binding assay using expression cell of prostanoids receptor subtype: 3H-PGE2 binding inhibition, EP2; conditions: 2.5 nM 3H-PGE2, CHO cell membrane fraction, pH 6.0, room temperature, 1 hour; read-out: Dissociation Constant Ki, EP2
T2 construct: expressed in transfected cells; host or cells: CHO cells
Procedure: as §1, §2, §3, §4, §5, §6

[3] = biological target: T3, mouse EP3α (Mus musculus, UniProt P30557); test: Binding assay using expression cell of prostanoids receptor subtype: 3H-PGE2 binding inhibition, EP3α; conditions: 2.5 nM 3H-PGE2, CHO cell membrane fraction, pH 6.0, room temperature, 1 hour; read-out: Dissociation Constant Ki, EP3α
T3 construct: expressed in transfected cells; host or cells: CHO cells
T3 sequence (P30557 1-365): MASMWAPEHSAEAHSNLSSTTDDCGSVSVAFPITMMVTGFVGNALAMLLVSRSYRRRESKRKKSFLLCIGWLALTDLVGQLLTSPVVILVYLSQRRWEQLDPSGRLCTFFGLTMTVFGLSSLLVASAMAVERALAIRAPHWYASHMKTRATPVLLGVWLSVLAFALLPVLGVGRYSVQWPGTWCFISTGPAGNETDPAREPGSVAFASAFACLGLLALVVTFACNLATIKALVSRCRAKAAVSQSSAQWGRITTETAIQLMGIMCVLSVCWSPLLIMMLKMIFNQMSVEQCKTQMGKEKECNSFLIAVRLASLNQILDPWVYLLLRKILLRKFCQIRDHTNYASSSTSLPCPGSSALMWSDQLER
Procedure: as §1, §2, §3, §4, §5, §6

[4] = biological target: T4, mouse EP4 (Mus musculus, UniProt P32240); test: Binding assay using expression cell of prostanoids receptor subtype: 3H-PGE2 binding inhibition, EP4; conditions: 2.5 nM 3H-PGE2, CHO cell membrane fraction, pH 6.0, room temperature, 1 hour; read-out: Dissociation Constant Ki, EP4
T4 construct: expressed in transfected cells; host or cells: CHO cells
Procedure: as §1, §2, §3, §4, §5, §6

T4 sequence (P32240 whole entry): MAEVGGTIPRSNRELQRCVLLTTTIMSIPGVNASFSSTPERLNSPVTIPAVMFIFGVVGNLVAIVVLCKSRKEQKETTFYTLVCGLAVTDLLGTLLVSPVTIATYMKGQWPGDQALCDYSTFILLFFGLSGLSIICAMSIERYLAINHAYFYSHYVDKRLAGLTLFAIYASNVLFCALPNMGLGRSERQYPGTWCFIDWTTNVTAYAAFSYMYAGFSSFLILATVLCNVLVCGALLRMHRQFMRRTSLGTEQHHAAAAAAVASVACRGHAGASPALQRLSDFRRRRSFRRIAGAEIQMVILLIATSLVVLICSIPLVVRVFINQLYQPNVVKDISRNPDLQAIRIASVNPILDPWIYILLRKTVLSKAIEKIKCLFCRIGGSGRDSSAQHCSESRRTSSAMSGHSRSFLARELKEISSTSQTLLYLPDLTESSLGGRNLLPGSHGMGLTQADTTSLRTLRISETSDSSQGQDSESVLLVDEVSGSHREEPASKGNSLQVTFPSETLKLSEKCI
T2 sequence (Q62053 whole entry): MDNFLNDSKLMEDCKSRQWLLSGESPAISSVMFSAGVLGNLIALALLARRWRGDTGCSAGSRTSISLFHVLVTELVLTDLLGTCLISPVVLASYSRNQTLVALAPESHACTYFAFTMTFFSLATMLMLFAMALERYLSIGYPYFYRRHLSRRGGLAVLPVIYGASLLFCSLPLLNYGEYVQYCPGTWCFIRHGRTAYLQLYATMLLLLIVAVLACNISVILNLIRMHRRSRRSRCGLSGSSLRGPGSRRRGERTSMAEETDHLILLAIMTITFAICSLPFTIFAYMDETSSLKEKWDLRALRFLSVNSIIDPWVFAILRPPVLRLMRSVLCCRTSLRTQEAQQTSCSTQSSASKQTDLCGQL

Row | Ki [1] [µM] | Ki [2] [µM] | Ki [3] [µM] | Ki [4] [µM] | Structure (SMILES)
1 | > 10 | 0.066 | > 10 | > 10 | CCC1([C@@H](O)C/C=C/[C@@H]2[C@@H](CCCCCCC(=O)O)[C@H](F)C[C@H]2O)CCC1 [Example 2(a), (9β,11α,16α)-9-Fluoro-11,16-dihydroxy-17,17-propano-20-norprosta-13E-enoic acid]
2 | 5.7 | 0.0081 | > 10 | 1.7 | CCC1([C@@H](O)C/C=C/[C@@H]2[C@@H](CCCCCCC(=O)O)[C@H](Cl)C[C@H]2O)CCC1 [Example 2, (9β,11α,16α)-9-Chloro-11,16-dihydroxy-17,17-propano-20-norprosta-13E-enoic acid]
3 | 3.5 | 0.017 | > 10 | > 10 | CCC1([C@@H](O)CCC[C@@H]2[C@@H](CCCCCCC(=O)O)[C@H](Cl)C[C@H]2O)CCC1 [Example 3(a), (9β,11α,16α)-9-Chloro-11,16-dihydroxy-17,17-propano-20-norprostanoic acid]
